Reference: US11980632B2 (priority 2020, dated 2024)

What follows are compounds tested on corona-pseudovirus.
Assay type: cell-based, SARS-CoV-2

Compound | infection with the corona-pseudovirus (degree of infection depending on drug concentration)
CCN(CCO)CCCC(C)Nc1ccnc2cc(Cl)ccc12 (stereo not drawn) [hydroxychloroquinine] | inhibited in a concentration-dependent manner
CN(C)C(=O)COC(=O)Cc1ccc(OC(=O)c2ccc(NC(=N)N)cc2)cc1 [Camostat] | inhibited in a concentration-dependent manner
heparin | inhibited in a concentration-dependent manner
